Reference: US9474790B2, “Stable, protracted GLP-1/glucagon receptor co-agonists for medical use” (Novo Nordisk A/S, priority 2013, dated 2016)
Numbered stars: 1 amine (or outer) side, 2 acyl side, 3 side chain; on linkers, the order of the positions; unused ones are H or OH. Square brackets hold non-standard residues; d marks the D form. Side chains are listed from the residue outwards. Peptide text beside a SMILES is read from it. * marks the point of attachment. C18 diacid = O=C(O)CCCCCCCCCCCCCCCCC(=O)*; γGlu = O=C(O)[C@H](CCC(=O)[*:2])N[*:1]; AEEA = NCCOCCOCC(=O)O; Aib = CC(C)(N)C(=O)O

Columns and labels:
[1] = Chemical stability assessment by RP-UPLC; format: physicochemical; conditions: 333 μM, 8 mM phosphate buffer pH 7.3, 37° C. vs 5° C.
Experimental: The purpose of this assay was to assess the chemical stability of the glucagon derivatives of the invention in aqueous solutions.
Chemical stability of glucagon derivatives or analogues was investigated by RP-UPLC separation and UV detection. Lyophilized samples were dissolved in a 8 mM Phosphate buffer pH 8.6, followed by adjustment to pH 7.3.using HCl to a final concentration of 333 μM. Samples were incubated for 14 days at 5° C. and 37° C. followed by RP-UPLC analysis. Purity was defined as the area percentage of the main peak in relation to the total area of all integrated peaks in each chromatogram. Purity loss after 14 days at 37° C. was determined as the difference in purity between the samples incubated at 5° C. and 37° C., divided by the purity of the sample after incubation for 14 days at 5° C.
RP-UPLC analysis was performed using a Waters BEH130 2.1 mm×150 mm, 1.7 μm column operated at 50° C. and a flow rate of 0.4 mL/min using a mobile phase system consisting of A: 0.05% TFA in MQ-water B: 0.05% TFA in Acetonitrile. UV-detection was performed at 215 nm. The typical gradient profile used for most of the samples is shown below.
For some individual derivatives or analogues eluting at substantially different retention times compared with the majority of derivatives or analogues, some adjustments to the gradient profile were made to better enable purity assessment comparison across samples. The data confirmed the improved chemical stability of the glucagon derivatives of this invention.

human glucagon receptor = molecular target: T1, human glucagon receptor (Homo sapiens, UniProt P47871); assay: Glucagon receptor potency, CRE luciferase reporter gene assay in BHK cells; format: cell-based; conditions: BHK cells expressing human glucagon receptor, read-out: EC50 GlucR
T1 construct: expressed in transfected cells; host or cells: BHK cells (parent BHK570, CRE luciferase clone BHK/KZ10-20-48), clone pLJ6'-4-25
T1 sequence (P47871 26-477): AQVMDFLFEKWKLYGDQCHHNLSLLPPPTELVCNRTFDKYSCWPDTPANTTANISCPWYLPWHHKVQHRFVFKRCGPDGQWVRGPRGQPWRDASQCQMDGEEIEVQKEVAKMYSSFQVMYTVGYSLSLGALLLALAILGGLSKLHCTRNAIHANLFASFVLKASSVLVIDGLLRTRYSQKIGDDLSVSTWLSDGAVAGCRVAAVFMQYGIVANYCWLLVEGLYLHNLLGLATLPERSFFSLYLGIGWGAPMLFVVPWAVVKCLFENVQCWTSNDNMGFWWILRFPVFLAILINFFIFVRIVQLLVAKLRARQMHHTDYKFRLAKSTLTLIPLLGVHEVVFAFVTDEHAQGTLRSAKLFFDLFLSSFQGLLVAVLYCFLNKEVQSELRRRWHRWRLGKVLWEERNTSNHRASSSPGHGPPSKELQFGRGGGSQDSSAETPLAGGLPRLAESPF
Experimental: The purpose of this example was to test the potency, of the glucagon derivatives of the invention, in vitro. The in vitro potency is the measure of human GLP-1 receptor or glucagon receptor activation, respectively, in a whole cell assay.
In vitro potency was determined by measuring the response of human GLP-1 or glucagon receptor, respectively, in a reporter gene assay. The assay was performed in a stably transfected BHK cell line that expresses either the human GLP-1 receptor or the human glucagon receptor and contains the DNA for the cAMP response element (CRE) coupled to a promoter and the gene for firefly luciferase (CRE luciferase). […] When assay incubation was completed, the luciferase substrate (luciferin) was added and the enzyme converted luciferin to oxyluciferin and produces bioluminescence. The luminescence was measured as the readout for the assay.
The cells used in this assay (clone pLJ6′-4-25) were BHK cells with BHK570 as a parent cell line expressing the CRE luciferase gene (clone BHK/KZ10-20-48) and were established by further transfection with the human glucagon receptor (clone pLJ6′ in pHZ-1 vector).
The cells were cultured at 5% CO2 in DMEM medium with 10% FBS, 1×GlutaMAX, 1 mg/ml G418, 240 nM MTX (methotrexate) and 1% pen/strep (penicillin/streptomycin). They were aliquoted and stored in liquid nitrogen. Before each assay, an aliquot was taken up and washed three times in PBS before being suspended at the desired concentration in assay medium. For 96-well plates the suspension was made to give a final concentration of 5×10EE3 cells/well.
The following chemicals were used in the assay: Pluronic F-68 (10%) (Gibco 2404), ovalbumin (Sigma A5503), DMEM w/o phenol red (Gibco 11880-028), 1 M Hepes (Gibco 15630), Glutamax 100× (Gibco 35050) and steadylite plus (PerkinElmer 6016757).
Assay Medium consisted of DMEM w/o phenol red, 10 mM Hepes, 1× GlutaMAX, 2% Ovalbumin and 0.2% Pluronic F-68.
Cell stocks were thawed in a 37° C. water bath. Cells were washed three times in PBS. The cells were counted and adjusted to 5×10EE3 cells/50 μl (1×10EE5 cells/ml) in Assay Medium. A 50 μl aliquot of cells was transferred to each well in the assay plate.
Stocks of the test compounds and reference compounds were diluted to a concentration of […] in Assay Medium. Compounds were diluted 10-fold to give the following concentrations: 2×10EE-6 M, 2×10EE-7 M, 2×10EE-8 M; 2×10EE-9 M, 2×10EE-10 M, 2×10EE-11 M, 2×10EE-12 M and 2×10EE-13 M. For each compound a blank assay medium control was also included.
A 50 μl aliquot of compound or blank was transferred from the dilution plate to the assay plate. Compounds were tested at the following final concentrations: 1×10EE-6 M, 1×10EE-7 M, 1×10EE-8 M; 1×10EE-9 M, 1×10EE-10 M, 1×10EE-11 M and 1×10EE-12 M and 1×10EE-13 M.
The assay plate was incubated for 3 h in a 5% CO2 incubator at 37° C. The assay plate was removed from the incubator and allowed to stand at room temperature for 15 min. A 100 μl aliquot of steadylite plus reagent was added to each well of the assay plate (reagent is light sensitive). Each assay plate was covered with aluminum foil to protect it from light and shaken for 30 min at room temperature. Each assay plate was read in a Perkin Elmer TopCount NXT instrument.
The data from the TopCount instrument was transferred to GraphPad Prism software. The software performed a non-linear regression (log(agonist) vs response-Variable slope (four parameter)). EC50 values were calculated by the software and reported in pM.

[2] = Thioflavin T (ThT) fibrillation assay for physical stability; format: physicochemical; conditions: 250 μM in 10 mM HEPES buffer, pH 7.5, 37° C., shaking 960 rpm
Summary of the method: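 Peptide at 250 μM in 10 mM HEPES pH 7.5 with 1 μM ThT, at 37° C with 960 rpm orbital shaking. Fluorescence (ex 444/em 485 nm) read every 20 min after 10 min pre-incubation; sigmoidal fit gives lag time (t0−2τ) and kapp (1/τ). Recovery is RP-HPLC peptide in the centrifuged, 0.22 μm-filtered supernatant as % of initial.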

human GLP-1 receptor [3] = molecular target: T2, human GLP-1 receptor (Homo sapiens, UniProt P43220); assay: GLP-1 receptor potency, CRE luciferase reporter gene assay in BHK cells; format: cell-based; conditions: BHK cells expressing human GLP-1 receptor, read-out: EC50 GLP-1R
T2 construct: expressed in transfected cells; host or cells: BHK cells (parent BHKTS13), clone FCW467-12A/KZ10-1, with CRE luciferase
T2 sequence (P43220 24-463): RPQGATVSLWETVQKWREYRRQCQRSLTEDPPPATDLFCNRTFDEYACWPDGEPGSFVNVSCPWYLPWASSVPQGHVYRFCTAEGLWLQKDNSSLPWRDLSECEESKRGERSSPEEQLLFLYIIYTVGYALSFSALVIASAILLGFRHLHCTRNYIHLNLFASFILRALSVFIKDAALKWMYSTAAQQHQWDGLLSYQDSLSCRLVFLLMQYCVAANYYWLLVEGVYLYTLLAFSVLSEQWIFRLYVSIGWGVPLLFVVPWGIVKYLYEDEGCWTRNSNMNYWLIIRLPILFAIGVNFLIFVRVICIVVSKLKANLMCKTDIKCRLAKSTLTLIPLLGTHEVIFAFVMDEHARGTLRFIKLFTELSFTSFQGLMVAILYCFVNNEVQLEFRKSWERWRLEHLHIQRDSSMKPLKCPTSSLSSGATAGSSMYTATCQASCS
Summary of the method: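 BHK cells stably expressing human GLP-1 receptor with CRE-luciferase reporter, 5×10EE3 cells/well in phenol red-free DMEM with 10 mM Hepes, 2% ovalbumin, 0.2% Pluronic F-68. Compounds at final 1×10EE-6 to 1×10EE-13 M, 3 h at 37° C; steadylite luminescence; EC50 by four-parameter fit, in pM.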

human GLP-1 receptor [4] = molecular target: T2, human GLP-1 receptor; assay: GLP-1 receptor binding, 125I-GLP-1 displacement SPA on isolated membranes; conditions: displacement of 125I-GLP-1 from membranes; read-out: IC50 GLP-1R
Summary of the method: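 SPA displacement of 125I-GLP-1(7-36)NH2 from membranes of BHK cells expressing human GLP-1 receptor, with WGA beads, in 50 mM HEPES, 5 mM EGTA, 5 mM MgCl2, 0.005% Tween 20, pH 7.4. Incubated 2 h at 30°C; IC50 by non-linear regression, run at ≤0.001% or 2.0% final serum albumin.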

| Purity loss; 14 days at 37° C. [1] [%] | EC50 (human glucagon receptor) [nM] | THT assay Lag time (Ex. 76) [2] [h] | EC50 (human GLP-1 receptor [3]) [nM] | IC50 (human GLP-1 receptor [4]) [nM] | Structure (SMILES) |
| --- | --- | --- | --- | --- | --- |
| 2 | 0.024 | 45 | – | – | CC(C)C[C@H](NC(=O)[C@H](CC(C)C)NC(=O)[C@H](Cc1c[nH]c2ccccc12)NC(=O)[C@H](CCC(N)=O)NC(=O)[C@@H](NC(=O)[C@H](Cc1ccccc1)NC(=O)[C@H](CCC(=O)O)NC(=O)[C@H](CCCNC(=N)N)NC(=O)[C@H](C)NC(=O)[C@H](CCCNC(=N)N)NC(=O)[C@H](CCCNC(=N)N)NC(=O)[C@H](CC(C)C)NC(=O)[C@H](CC(=O)O)NC(=O)[C@H](CC(C)C)NC(=O)[C@H](Cc1ccc(O)cc1)NC(=O)[C@H](CCCCN)NC(=O)[C@H](CO)NC(=O)[C@H](CC(C)C)NC(=O)[C@H](CC(=O)O)NC(=O)[C@H](CO)NC(=O)[C@@H](NC(=O)[C@H](Cc1ccccc1)NC(=O)[C@@H](NC(=O)CNC(=O)[C@H](CCC(N)=O)NC(=O)C(C)(C)NC(=O)[C@@H](N)Cc1c[nH]cn1)[C@@H](C)O)[C@@H](C)O)C(C)C)C(=O)N[C@@H](CC(N)=O)C(=O)N[C@@H](CCCCNC(=O)CC[C@H](NC(=O)CC[C@H](NC(=O)COCCOCCNC(=O)CC[C@H](NC(=O)CCCCCCCCCCCCCCCCC(=O)O)C(=O)O)C(=O)O)C(=O)O)C(N)=O [Example 38, N^ε29-[(4S)-4-carboxy-4-[[(4S)-4-carboxy-4-[[2-[2-[2-[[(4S)-4-carboxy-4-(17-carboxyheptadecanoylamino)butanoyl]amino]ethoxy]ethoxy]acetyl]amino]butanoyl]amino]butanoyl]-[Aib2,Leu10,Leu16,Arg20,Glu21,Leu27,Lys29]-Glucagon amide] (H-H[Aib]QGTFTSDLSKYLDLRRAREFVQWLLNK([γGlu-γGlu-AEEA-γGlu-C18 diacid])-NH2; N-terminus assumed) |
| – | 0.017 | – | 0.004 | 0.7 | CC(C)C[C@H](NC(=O)[C@H](CC(=O)O)NC(=O)[C@H](CC(C)C)NC(=O)[C@H](Cc1ccc(O)cc1)NC(=O)[C@H](CCCCN)NC(=O)[C@H](CO)NC(=O)[C@@H](NC(=O)[C@H](CC(=O)O)NC(=O)[C@H](CO)NC(=O)[C@@H](NC(=O)[C@H](Cc1ccccc1)NC(=O)[C@@H](NC(=O)CNC(=O)[C@H](CCC(N)=O)NC(=O)C(C)(C)NC(=O)[C@@H](N)Cc1c[nH]cn1)[C@@H](C)O)[C@@H](C)O)C(C)C)C(=O)N[C@@H](CCCNC(=N)N)C(=O)N[C@@H](CCCNC(=N)N)C(=O)N[C@@H](C)C(=O)N[C@@H](CCC(N)=O)C(=O)N[C@@H](CC(=O)O)C(=O)N[C@@H](Cc1ccccc1)C(=O)N[C@H](C(=O)N[C@@H](CCC(N)=O)C(=O)N[C@@H](Cc1c[nH]c2ccccc12)C(=O)N[C@@H](CC(C)C)C(=O)N[C@@H](CC(C)C)C(=O)N[C@@H](CCCCNC(=O)COCCOCCNC(=O)COCCOCCNC(=O)CC[C@H](NC(=O)CC[C@H](NC(=O)CC[C@H](NC(=O)CCCCCCCCCCCCCCCCC(=O)O)C(=O)O)C(=O)O)C(=O)O)C(=O)N[C@H](C(N)=O)[C@@H](C)O)C(C)C [Example 71, N^ε28-[2-[2-[2-[[2-[2-[2-[[(4S)-4-carboxy-4-[[(4S)-4-carboxy-4-[[(4S)-4-carboxy-4-(17-carboxyheptadecanoylamino)butanoyl]amino]butanoyl]amino]butanoyl]amino]ethoxy]ethoxy]acetyl]amino]ethoxy]ethoxy]acetyl]-[Aib2,Val10,Leu16,Leu27,Lys28]-Glucagon amide] (H-H[Aib]QGTFTSDVSKYLDLRRAQDFVQWLLK([AEEA-AEEA-γGlu-γGlu-γGlu-C18 diacid])T-NH2) |
